US8956842B2, “Paenibacillus sp. HPL-3 strain producing xylanase having heat-resistance, a wide range of optimum pH and high activity, a novel xylanase separated from the strain, and a method for mass-production of the same using the transformant originated from the strain” (Korea Research Institute of Chemical Technology, priority 2011, dated 2015)
Where two headings read alike, the source gives them in different places.

Legend:
[1] = tested on: novel xylanase; assay: Effect of metal ions and additives on xylanase activity (DNS method); assay type: biochemical, Paenibacillus sp. HPL-3
Protocol: (§1) The measurement of xylanase activity (xylan decomposing activity) of the isolated strain, active clone, transformant, and isolated/purified enzyme was performed by either or both of the following two methods. The first method was enzyme activity measuring method using solid culture. Particularly, soft agar double medium was prepared by adding birch xylan (Fluka Bio Chemika. Co.) to LB medium by 0.5˜1.0%, to which the strain was inoculated, followed by culture for overnight. On the next day, the strain and active clone forming translucent zone (halo) around the cultured colony were selected by Congo-red staining. The second method was enzyme activity measuring method using liquid culture, that is DNS (3,5-dinitrosalicylic acid) quantitative method (Miller G. L. Anal Chem 31, 426-428, 1959). Particularly, 50 μl of substrate solution (50 mM Tris-HCl containing birch xylan by 2%, pH 7.0) was added to 50 μl of enzyme solution, followed by reaction at 50° C. for 20 minutes. 200 μl of DNS solution was added thereto, followed by further reaction at 90° C. for 5 minutes. Then, OD540 was measured. 1 unit of the enzyme was defined as the enzyme activity of 1 mg xylanase to produce 1 μmol of reducing sugar (xylose) per 1 minute.
To investigate the effect of metal ions on xylanase activity, CaCl2, MgCl2, MgCl2, CuCl2, ZnCl2, and FeCl3 were added by 1 mM each. It was further investigated how other salts such as NaCl, LiCl, KCl, NH4Cl, EDTA, CsCl2, 2-ME (2-Mercaptoethanol), DTT (Dithiothreitol), PMSF (Penylmethylsulfonyl fluoride), acetate, and furfural could affect xylanase activity.

[2] = Enzymatic reaction rate (Lineweaver-Burk) of the purified xylanase; assay type: biochemical
[3] = Xylanase activity (xylan decomposing activity) by DNS quantitative method at different pH and temperature; assay type: biochemical
Protocol: as §1, with “minute. One clone showing the best activity, GM3-SLX1, was selected by liquid culture and solid culture activity test (FIG. 2).” for “minute.”
In this example, pH, temperature, and metal ion-dependent activity of xylanase over-expressed and isolated from the E. coli transformant over-expressing the novel xylanase constructed in Example <3-4> was investigated by the same manner as described in example 3-2. pH of the reaction solution was regulated to pH 4˜5 with citric acid buffer, to pH 6˜8 with phosphate buffer, to pH 7˜9 with Tris/HCl buffer, and to pH 9˜11 with glycine/NaOH buffer. To investigate the effect of metal ions on xylanase activity, CaCl2, MgCl2, MgCl2, CuCl2, ZnCl2, and FeCl3 were added by 1 mM each. It was further investigated how other salts such as NaCl, LiCl, KCl, NH4Cl, EDTA, CsCl2, 2-ME (2-Mercaptoethanol), DTT (Dithiothreitol), PMSF (Penylmethylsulfonyl fluoride), acetate, and furfural could affect xylanase activity.
E. coli BL21-Gold (DE) (Stratagene, USA) was transfected with pIVEX GST-xylanase recombinant vector (Bioprogen Co., Ltd., Korea) containing the gene (SEQ. ID. NO: 3) encoding the novel xylanase represented by SEQ. ID. NO: 4, which was inoculated in liquid medium (LB 25 g/L) supplemented with ampicillin (50 μg/ml), followed by shaking culture at 37° C. at 150 rpm until […] reached 0.4˜0.6. To induce the expression of the target protein in E. coli cells, IPTG (isopropyl-D-thiogalactoside) was added to the suspension at the concentration of 1 mM, followed by further culture for 3 hours. The culture solution was centrifuged at 10,000 rpm for 10 minutes and the recovered precipitate was washed with PBS twice. The washed precipitate was re-suspended in PBS and then cell were lysed by using a ultrasonicator (Cosmo Bio Co., LTD). Centrifugation was performed (12,000 rpm, 10 minutes) to obtain supernatant. To isolate xylanase from the supernatant, glutathione S-transferase column (GST binding resin column, Novagen) was used. For xylanase separation, the obtained supernatant was filled in glutathione S-transferase column (GST binding resin column, Novagen) equilibrated with washing buffer (50 mM Tris-HCl, 100 mM NaCl; pH 7.0), followed by treatment of factor Xa protease (NEB) and separation using washing buffer (50 mM Tris-HCl, 100 mM NaCl; pH 7.0). The enzyme activity of xylanase in each sample recovered from the purification stage was investigated. The purification of active fraction showing the enzyme activity was confirmed by SDS-PAGE. Protein content was measured by using Bradford method (Bradford, Sigma Aldrich), and BSA (bovine serum albumin) was used as the standard protein.

[4] = 1 mM additive, negative control = 100
[5] = 1 mM of heavy metal or additive

[Cl-].[Li+] [LiCl]
Relative activity according to conc. of additive (%) [1, 4]: 101%

[Cl-].[K+] [KCl]
Relative activity according to conc. of additive (%) [1, 4]: 101%

O=S(=O)([O-])[O-].[Cu+2] [CuSO4]
Relative activity according to conc. of additive (%) [1, 4]: 26%
xylanase activity inhibited by [1, 5]: 74%
enzyme activity in presence of additive ([1]; concentration of 100 HM): hardly affected

O=S(=O)([O-])[O-].[Zn+2] [ZnSO4]
Relative activity according to conc. of additive (%) [1, 4]: 72%
xylanase activity inhibited by [1, 5]: 28%
enzyme activity in presence of additive ([1]; concentration of 100 HM): hardly affected

[Cl-].[Cl-].[Mg+2] [MgCl2]
Relative activity according to conc. of additive (%) [1, 4]: 93%

[Cl][Fe]([Cl])[Cl] [FeCl3]
Relative activity according to conc. of additive (%) [1, 4]: 88%
xylanase activity inhibited by [1, 5]: 12%
enzyme activity in presence of additive ([1]; concentration of 100 HM): hardly affected

O[C@H](CS)[C@H](O)CS (racemic) [DTT, Dithiothreitol]
Relative activity according to conc. of additive (%) [1, 4]: 95%

[Ca+2].[Cl-].[Cl-] [CaCl2]
Relative activity according to conc. of additive (%) [1, 4]: 102%

O=S(=O)(F)Cc1ccccc1 [PMSF, Penylmethylsulfonyl fluoride]
Relative activity according to conc. of additive (%) [1, 4]: 95%

O=C(O)CN(CCN(CC(=O)O)CC(=O)O)CC(=O)O [EDTA]
Relative activity according to conc. of additive (%) [1]: 54%
enzyme activity in presence of additive [1]: hardly affected
xylanase activity inhibited by [1]: 46%

OCCS [2-ME, 2-Mercaptoethanol]
Relative activity according to conc. of additive (%) [1, 4]: 89%

[Cl][Mn][Cl] [MnCl2]
Relative activity according to conc. of additive (%) [1, 4]: 98%

Cl.N [NH4Cl]
Relative activity according to conc. of additive (%) [1, 4]: 99%

CC(=O)O [Acetate]
Relative activity according to conc. of additive (%) [1, 4]: 101%

[Cl-].[Na+] [NaCl]
Relative activity according to conc. of additive (%) [1]: 105%

O=Cc1ccco1 [Furfural, furfural]
Relative activity according to conc. of additive (%) [1, 4]: 98%

[Cl-].[Cs+] [CsCl2]
Relative activity according to conc. of additive (%) [1, 4]: 97%

B1: novel xylanase: approximately 65 kD xylanase of Paenibacillus sp. HPL-3, amino acid sequence SEQ. ID. NO: 4, produced in E. coli transformant (protein)
chain: MDTLKLYVESSNPAQAYYLDEVEIRQVSETPTTPPTEPTSGIESRFEDGTAQGWVSRMGTETVQVSNADARTGSYSLLTTGRQQTYAGPKLDVTATVQKGSRYTVSAWVKLAPGEQQPAKVRLSVQRDHQGESTYETVVGNTAITTGGWTHLYGTYTLAHEADTVSMYLETPEGTASFYMDDFELSLVPPLAIEKDIPSLHGLYQGQFSIGTAIEAFQTEGAYGELVQKHFNSVVAGNAMKPISLQPSEGQFHWEEADRIVQFAQQHGIAIRFHTLVWHNQTGDWMFKDKNGQPMTPTAENKKLLLDRLETHIRAVAARYKNVITDWDVVNEVIDPDQPDGMRRSKWYQITGTDYIDKAFRVTREAAGPNARLYINDYNTHEPKKRDFLYNLVRDLLAKGVPIDGVGHQSHIRLEFPAIDEMEQSIEKFASLGLDNQITELDMGLYSNDTDHYETIPEAMLIRQAHRYRALFDMFSRQQEHISNVTIWGTDDGNTWLSMFPIARLDKPLLFDERLKAKYAYWALVDPSKVPPLPAGSNE
modifications: SLX-O9 protein sequence
notes: approximately 65 kD xylanase of Paenibacillus sp; ID; NO: 4, produced in E. coli transformant
xylanase activity against other xylans (beech, oats, etc) compared with birch xylan [2]: similar
enzyme activity ([3]; 50° C., pH 5.0): 97.37 units
enzyme activity ([3]; 50° C., pH 6.0): 124.19 units
enzyme activity ([3]; 50° C., pH 7.0): 122.21 units
enzyme activity ([3]; 50° C., pH 8.0): 124.61 units
enzyme activity ([3]; 50° C., pH 9.0): 122.95 units
enzyme activity ([3]; 50° C., pH 10.0): 103.27 units
enzyme activity ([3]; 50° C., pH 11.0): 96.08 units
enzyme activity ([3]; 60° C., pH 5.0, units = μM of xylose produced by 1 mg of enzyme per 1 minute): 26.93 units
enzyme activity ([3]; 60° C., pH 6.0): 105.19 units
enzyme activity ([3]; 60° C., pH 7.0): 123.56 units
enzyme activity ([3]; 60° C., pH 8.0): 120.95 units
enzyme activity ([3]; 60° C., pH 9.0): 112.25 units
enzyme activity ([3]; 60° C., pH 10.0): 29.89 units
enzyme activity ([3]; 60° C., pH 11.0): 22.76 units
activity of purified enzyme compared with before purification ([3]; after glutathione resin column purification): at least 5 times
xylanase activity when conjugated onto the resin ([3]; glutathione resin): not changed
